Data published in publication PMC8372979 (Journal of medicinal chemistry, 2020).

Tests used:
CYP3A4 = CYP3A4 induction; type: in vitro ADME; conditions: in words
[1] = Pharmacokinetics in female NMRI mice; type: in vivo, mouse
Caco-2 cells = assay: Caco-2 permeability; type: in vitro ADME
[2] = test system: Bloodstream Trypanosoma brucei brucei Lister 427 (STIB 795); assay: Growth inhibition assay for T. brucei brucei; type: cell-based; conditions: pEC50=−logEC50; 72 h, resazurin

Row | Compound | CYP3A4 Liability (induction) (CYP3A4) | Cmax ([1]; female, NMRI, mouse, in vivo, ip, 10 mg/kg, Mean Cmax ± SD, non-infected female NMRI mice, 10 mg/kg ip, without ABT-pretreatment, blood) [ng/mL] | Mean tmax ([1]; infected female NMRI mice, 30 mg/kg ip + ABT, day 1, blood) [min] | A-B Permeability Ranking (Caco-2 cells; Caco-2) | Caco-2 efflux (Caco-2 cells; in words) | Caco-2 permeability (Caco-2 cells; in words) | T. brucei pEC50 [2]
1 | Cn1nccc1Nc1nc(NCC(F)(F)F)c2nc[nH]c2n1 [Compound 4aa, N^2-(1-methyl-1H-pyrazol-5-yl)-N^6-(2,2,2-trifluoroethyl)-9H-purine-2,6-diamine] | does not have CYP3A4 induction liability | 3670 ± 922 | 30 to 120 | Higher | rapidly effluxed | Permeable | 
2 | N^6-(tert-butyl)-N^2-(thiophen-3-yl)-9H-purine-2,6-diamine [Compound 5r] |  |  |  |  |  |  | 7.1
